Values after ≈ are worked out from the molar mass of the structure shown.
How the values were obtained:
THP-1 cells = test: Cell viability of THP-1 cells in the anti inflammatory assay; assay type: cell-based, human
collagen in fibroblasts = test: Collagen production / collagen staining in fibroblasts; assay type: cell-based, human
[1] = tested on: Human keratinocytes (HaCAT); test: Protection against UVB induced apoptosis, DNA damage and death (annexin-FITC/PI flow cytometry); assay type: cell-based; conditions: UVB exposed HaCAT
Procedure: Cells: Human keratinocytes (HaCAT)—cells were maintained as a monolayer culture in Dulbeccos modified minimal essential medium (DMEM) Life technologies, CA, USA) supplemented with 10% (v/v) heat-inactivated foetal bovine serum (FBS; GIBCO/Invitrogen, Carlsbad, Calif.), 100 units/mL penicillin and 100 μg/mL streptomycin (Life technologies) at 37° C. in a humidified 5% CO2 incubator.
Reagents: Dulbeccos modified minimal essential medium (DMEM), Fetal bovine serum (FBS), Annexin-FITC, Propidium Iodide-Apoptosis detection kit, Biovision, USA.
Instrument: Flow Cytometry (BD-FACS-Celesta).
Cells (3×10^5) were pre-treated with different concentrations of test sample for one hour and exposed to UVB. Cells were exposed to UVB rays for 10 min and incubated for 16 hours in DMEM with 2% serum. Cells were labelled with annexin-FITC and propidium iodide […] for 10 minutes in dark and analyzed using flow cytometer (BD FACS-Celesta).

Human dermal fibroblasts [2] = test: Gene expression analysis in dermal fibroblasts (quantitative RT-PCR); assay type: cell-based; conditions: 6.25 μg/ml, 24 hours
Procedure: (§1) Human dermal fibroblasts and keratinocytes were cultured in 6 well microtiter plates in the presence of 6.25 μg/ml oleanoyl KVK for 24 hours. Untreated cells were used as control. At the end of incubation time, the cells were lysed and RNA was extracted. […] Extracted RNA was treated with DNAse I to remove any contaminating DNA and again extracted using phenol: chloroform: isoamyl alcohol extraction ([…]). Quality of RNA was determined by checking the absorbance at 260/280 nm using a Nanodrop (Thermo). 2 μg of total RNA was taken for cDNA synthesis using Super Script III First-Strand Synthesis System (Life Technologies). Quantitative RT-PCR analysis was performed to determine the expression of brown fat specific genes in Roche Light cycler 96 using SYBR Green master mix (Thermo Scientific). β actin was used as a house keeping gene. The relative RNA abundance of the genes was normalized to the housekeeping β actin gene and expressed as delta delta CT (equivalent to fold change transformed by Log2).

[3] = biological target: T1, Elastase enzyme from pig pancreas (Sus scrofa, UniProt P00772); test: Anti elastase activity (EnzChek DQ elastin fluorescence assay); assay type: biochemical
T1 construct: purchased; host or cells: pig pancreas
Excerpt: Elastase is one of the […], which digest elastin and other components of the extra cellular matrix and is important both for normal skin development. If this enzyme is not regulated by inhibitor proteins results in wrinkling of skin, premature ageing and carcinogenesis. The Anti-Elastase assay by Enz Chek elastase assay kit determines the elastase inhibitory activity of the products. The assays were done using the EnzChek elastase assay kit. The substrate is DQ elastin soluble bovine neck ligament. DQ elastin is labelled with BODIPY FL dye. The non-fluorescent substrate can be digested by elastase to yield highly fluorescent fragments and in the presence of inhibitor, the fluorescence intensity is quenched. The fluorescence intensity was measured in a microplate reader ([…].)
The assay was performed in a 96 well black microtitre plate. […] 100 μl of the Elastase enzyme solution (final concentration-0.1 U/ml) was added and the fluorescence intensity was measured at Em: 485 nm and Ex: 520 nm after 30 minutes. Enzyme activity of control (buffer) was recorded.
[formula] • B—Fluorescence in the presence of enzyme • BC—Fluorescence in the absence of enzyme activity • T—Fluorescence of enzyme activity in the presence of inhibitor • C—Fluorescence of the inhibitor alone Result

[4] = tested on: Collagenase Type IV from Clostridium histolyticum; test: Anti collagenase activity (EnzChek DQ gelatin fluorescence assay); assay type: biochemical
Excerpt: Collagenase is one of the matrix metalloprotease, which digest collagen and other components of the extra cellular matrix (ECM). The ECM serves as a scaffold to stabilize the skin structure, and also helps in proliferation and metabolic functions of the skin cells. Loss of collagen leads to wrinkles and sagging of skin. The principle of the assay of collagenase inhibition is based on the fact that the substrate DQ™ gelatine is conjugated to fluorecein—a fluorescent compound. In DQ™ gelatine, fluorescence is quenched. DQ™ gelatine is efficiently digested by collagenases to yield a fluorescent compound which can be measured. The increase in fluorescence is proportional to enzyme activity. In the presence of an anti collagenase compound the amount of fluorescence will be decreased for a fixed concentration of enzyme and substrate.
• Equipment-BMG FLUOstar Optima (fluorescent Microplate reader) • Reagents: Phosphate buffer (pH 7.4) • Collagenase Enzyme assay kit (Enzchek® collagenase, gelatinase assay kit, Invitrogen, USA) • Microtitre plates—96 well microtitre plates (black)—Corning, USA
The assay was performed in a 96 well black microtitre plate. […] 100 μl of the Collagenase enzyme solution (final concentration-0.4 U/ml) was added and the fluorescence intensity was measured at Em: 485 nm and Ex: 520 nm after 30 minutes. Enzyme activity of control (buffer) was recorded. […]

[5] = tested on: Human keratinocytes (HaCAT); test: ROS scavenging in keratinocytes, UV induced oxidative stress (DCFH-DA); assay type: cell-based; conditions: 6.25 μg/ml
Procedure: (§2) Cells: Human keratinocytes (HaCAT)—cells were maintained in fibroblast media (Gibco) at 37° C. in a humidified 5% CO2 incubator.
Reagents: Keratinocyte media (Gibco) DCFH-DA Instrument: FluoStar Optima microplate reader.
(§3) Reactive oxygen species include a number of molecules that damage DNA and RNA and oxidize proteins and lipids (lipid peroxydation). These reactive molecules contain an oxygen atom/molecule and include H2O2 (hydrogen peroxide), NO (nitric oxide), O2^− ([…]), peroxynitrite (ONOO^−), hydrochlorous acid (HOCl), and hydroxyl radical (OH). 5-(and 6)-chloromethyl-20, 70-dichlorohydrofluorescein diacetate (CM-H2DCFDA) freely permeates the plasma membrane and is hydrolyzed in the cytosol to form the DCFH carboxylate anion. Oxidation results in the formation of fluorescent DCF, which is maximally excited at 495 nm and emits at 520 nm.
(§4) Keratinocytes were seeded at 50,000 cells per well in 96 well black plates and allowed to grow as a monolayer for 24 hours. Cells were pre-treated with different concentration of Oleanoyl-KVK for one hour. The plate was exposed to UVA radiation for 1 hour. Freshly prepared DCFH-DA reagent was added to all the wells (2 ug/well). The plate was incubated at 37° C. for 30 minutes. Fluorescence was recorded at 485:520, Ex: Em wavelength in FluoStar Optima microplate reader.

[6] = tested on: keratinocytes exposed to oxidative stress; test: Gene expression in keratinocytes exposed to oxidative stress (quantitative RT-PCR); assay type: cell-based, human; conditions: cells exposed to oxidative stress
Procedure: as §1

[7] = tested on: TGF-β secretion by fibroblasts; test: TGF-β concentration in fibroblast culture supernatant; assay type: cell-based, human
Human dermal fibroblasts [8] = test: Proliferation of fibroblasts (SRB assay); assay type: cell-based; conditions: concentration of 12.5% (so in the source), 72 hours
Procedure: Human dermal fribroblasts were seeded at a density of 5×10^3 cells/well in DMEM 10% FBS and antibiotics in 96 well plate and allowed to form a monolayer in a humidified incubator at 37° C. and 5% CO2 atmosphere for 24 hours. Cells were treated with different concentration of the extract for 72 hours to assess the cytotoxicity. The viability of fibroblasts were determined by SRB assay (Nature protocols, 2006, 1, 3, 2112-16). Cells in DMEM with 0.1% DMSO was used as […] while media without cells were used as negative control

[9] = tested on: TNF-α secretion by THP-1 human monocytes; test: Anti inflammatory activity: LPS induced TNF-α secretion in THP-1 cells (ELISA); assay type: cell-based; conditions: for % Inhibition (TNF-α): LPS stimulated THP-1, 24 hour
Procedure: Anti inflammatory activity was examined using human monocyte/macrophage cell line THP-1. Monocytes respond to lipo-polysaccharides (LPS) by secreting pro-inflammatory cytokines. Tumour necrosis factor (TNF-α) is one of the principle cytokine which triggers a cascade of inflammatory reactions. The concentration of TNF-α was measured using an Enzyme linked Immunosorbent assay (ELISA). Reduction in TNF-α concentration indicates an anti inflammatory activity of the compound.
Cells: THP1-human monocytes purchased from American Type Culture Collection (ATCC, Manassas, Va.) and maintained as a monolayer culture in Rosewell park memorial institute Medium (RPMI Life technologies, CA, USA) supplemented with 10% (v/v) heat-inactivated foetal bovine serum (FBS; GIBCO/Invitrogen, Carlsbad, Calif.), 100 units/mL penicillin and 100 μg/mL streptomycin (Life technologies) at 37° C. in a humidified 5% CO2 incubator.
ELISA kit: Human TNF ELISA kit, Krishgen Biosciences, USA
1×10^5 THP-1 cells were stimulated with 100 ng with lipopolysacharide (LPS, 0.1 μg/mL) to induce TNF-α secretion. Cells were pre treated with different concentrations of oleanoyl KVK before LPS treatment. The cell supernatants were collected 24 hour after treatment and secreted TNF-α as estimated by cytokine ELISA as described by the manufacturer. Un-stimulated cells were used as negative control. The limit of detection was <1 pg/mL.

keratinocytes = test: Gene expression analysis in keratinocytes (quantitative RT-PCR); assay type: cell-based, human; conditions: 6.25 μg/ml, 24 hours
Procedure: as §1

[10] = tested on: Human keratinocytes (HaCAT); test: ROS scavenging in keratinocytes, heavy metal induced oxidative stress; assay type: cell-based; conditions: concentration of 12.5% (so in the source)
Procedure: as §2, §3
as §4, with “The plate was exposed to UVA radiation for 1 hour.” left out

T1 sequence (P00772 27-266): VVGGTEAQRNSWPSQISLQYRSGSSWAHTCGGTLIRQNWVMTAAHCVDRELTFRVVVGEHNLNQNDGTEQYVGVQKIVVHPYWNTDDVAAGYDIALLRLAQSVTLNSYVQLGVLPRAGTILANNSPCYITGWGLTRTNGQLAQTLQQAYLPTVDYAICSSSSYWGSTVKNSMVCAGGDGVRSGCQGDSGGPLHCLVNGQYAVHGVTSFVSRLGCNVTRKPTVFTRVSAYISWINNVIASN

CC(C)[C@H](NC(=O)[C@H](CCCCN)NC(=O)[C@]12CCC(C)(C)C[C@H]1C1=CC[C@@H]3[C@@]4(C)CC[C@H](O)C(C)(C)[C@@H]4CC[C@@]3(C)[C@]1(C)CC2)C(=O)N[C@@H](CCCCN)C(=O)O [Oleanoyl-KVK, Lysine-Valine-Lysine (KVK) conjugated to Oleanolic acid]
Cell viability (THP-1 cells; 1.56 μg/ml): 100%
Cell viability (THP-1 cells; 3.12 μg/ml): 100%
Cell viability (THP-1 cells; 6.25 μg/ml): 100%
Cell viability (THP-1 cells; 12.5 μg/ml): 100%
increase in collagen staining in fibroblasts (collagen in fibroblasts): 22.8%
percent protection against UV induced DNA damage and death ([1]; 12.5 μg/ml): 47.9%
reduction in late apoptosis [1]: concentration dependent reduction in late apoptosis
increase in live cells ([1]; 12.5 μg/ml): highest increase in live cells
reduction in early apoptosis ([1]; maximum at 12.5 μg/ml): concentration dependent reduction in early apoptosis
expression level of TGF-β (Human dermal fibroblasts [2]): increased
expression level of collagen (Human dermal fibroblasts [2]): increased
expression level of hyaluronan synthase (Human dermal fibroblasts [2]): increased
inhibition at 250 µg/mL ([3]; 250 μg/ml): 98%
IC50 ([3]; DQ elastin substrate, 30 minutes, read-out: IC50 anti elastase activity (printed: anti collagenase activity) (converted)): 77 µM
inhibition of collagenase enzyme activity ([4]; 250 μg/ml): 100%
IC50 anti collagenase activity ([4]; DQ gelatin substrate, 30 minutes): 48.8 µg/mL
ROS scavenging activity, UV induced stress [5]: 17.1%
expression level of matrix metalloprotease 9 [6]: down regulated
expression level of tumor necrosis factor α [6]: down regulated
TGF-β secretion by fibroblasts [7]: dose dependent increase
increase in proliferation of fibroblasts (Human dermal fibroblasts [8]): 42.2%
% Inhibition (TNF-α) ([9]; 1.56 μg/ml): 12.14%
% Inhibition (TNF-α) ([9]; 3.12 μg/ml): 12.53%
% Inhibition (TNF-α) ([9]; 6.25 μg/ml): 31.01%
% Inhibition (TNF-α) ([9]; 12.5 μg/ml): 71.03%
IC50 anti inflammatory activity ([9]; LPS stimulated THP-1, TNF-α ELISA): 9.09 µg/mL (≈ 11.2 µM)
gene expression in keratinocytes (FIG. 10: collagen, Elastin, TGF-β, hyaluronan synthase, epidermal growth factor) (keratinocytes): increased
ROS scavenging, induced by heavy metals [10]: 20.4%

Source: patent US10588844B2, “Process for preparing tripeptide containing oleanolic acid and its therapeutic applications thereof” (priority 2017, dated 2020)
